Source: US5686477A, “5-(arloxymethyl)oxazolines” (Adir et Compagnie, priority 1994, dated 1997)

How the values were obtained:
imidazoline I1-receptors = assay: Binding to imidazoline I1-receptors, displacement of [3H]-clonidine (in vitro); settings: [3H]-clonidine + 10 μM norepinephrine; bovine lateral reticular nucleus
From the text: (§1) EXAMPLE A: PROFILE OF BINDING TO IMIDAZOLINE I1 - AND I2 -RECEPTORS. (IN VITRO STUDY)
(§2) To measure in vitro the binding affinity of the compounds of the invention for I1 - and I2 -receptors, by determining the capacity of those compounds to displace specific radioligands of the imidazoline I1 - and I2 -receptors.
(§3) The following Table gives the radioligand used to label the receptor, the compound and the concentration selected to determine the non-specific fraction and the tissue selected.
(§4) Radioligand non specific
10 μM of cold clonidine

imidazoline I2-receptors = assay: Binding to imidazoline I2-receptors, displacement of [3H]-idazoxane (in vitro); settings: [3H]-idazoxane + 10 μM norepinephrine; rabbit renal cortex
From the text: as §1, §2, §3, §4
10^-5 M rabbit renal cortex

dipole moment = format: physicochemical

Work on `Cc1ccccc1OCC1CN=C(N)O1` (racemic) [Example 1, 5-[(2-METHYLPHENOXY)METHYL]-4,5-DIHYDRO-OXAZOL-2-YLAMINE] yielded a pKa (pKa) of 8.54, a Ki (imidazoline I1-receptors) of 8.5 nM and a logP (log Po/w) of 1.69. For the same compound, the Ki (imidazoline I2-receptors) was 920 nM, the dipole moment (dipole moment; benzene) was 1.80 D and the dipole moment (dipole moment; dioxane) was 2.07 D.

With `Cc1ccccc1OCC1CN=C(N)O1` (single isomer, unassigned) [Example 28, 5-[(2-METHYLPHENOXY)METHYL]-4,5-DIHYDRO-OXAZOL-2-YLAMINE] the Ki (imidazoline I1-receptors) was 370 nM and the Ki (imidazoline I2-receptors) was 13000 nM.

For `Cc1ccccc1OCC1CN=C(N)O1` (single isomer, unassigned) [Example 29, 5-[(2-METHYLPHENOXY)METHYL]-4,5-DIHYDRO-OXAZOL-2-YLAMINE], the Ki (imidazoline I1-receptors) was 5.8 nM and the Ki (imidazoline I2-receptors) was 7500 nM.

With `Cc1cccc(C)c1OCC1CN=C(N)O1` (stereo not drawn) [Example 9, 5-[(2,6-DIMETHYLPHENOXY)METHYL]-4,5-DIHYDRO-OXAZOL-2-YLAMINE] the Ki (imidazoline I1-receptors) was 57 nM and the Ki (imidazoline I2-receptors) was 2100 nM.

Compound `Cc1ccc(OCC2CN=C(N)O2)c(C)c1` (stereo not drawn) [Example 10, 5-[(2,4-DIMETHYLPHENOXY)METHYL]-4,5-DIHYDRO-OXAZOL-2-YLAMINE] has a Ki (imidazoline I1-receptors) of 160 nM and a Ki (imidazoline I2-receptors) of 3900 nM.

For `Cc1cccc(OCC2CN=C(N)O2)c1C` (stereo not drawn) [Example 13, 5-[(2,3-DIMETHYLPHENOXY)METHYL]-4,5-DIHYDRO-OXAZOL-2-YLAMINE], the Ki (imidazoline I1-receptors) was 64 nM and the Ki (imidazoline I2-receptors) was 450 nM.

For `Cc1ccc(C)c(OCC2CN=C(N)O2)c1` (stereo not drawn) [Example 16, 5-[(2,5-DIMETHYLPHENOXY)METHYL]-4,5-DIHYDRO-OXAZOL-2-YLAMINE], the Ki (imidazoline I1-receptors) was 85 nM and the Ki (imidazoline I2-receptors) was 1600 nM.

With `Cc1cc(Cl)ccc1OCC1CN=C(N)O1` (stereo not drawn) [Example 17, 5-[(4-CHLORO-2-METHYLPHENOXY)METHYL]-4,5-DIHYDRO-OXAZOL-2-YLAMINE] the Ki (imidazoline I1-receptors) was 120 nM and the Ki (imidazoline I2-receptors) was 1000 nM.

In the case of `CCc1ccccc1OCC1CN=C(N)O1` (stereo not drawn) [Example 18, 5-[(2-ETHYLPHENOXY)METHYL]-4,5-DIHYDRO-OXAZOL-2-YLAMINE], the Ki (imidazoline I1-receptors) is reported as 100 nM and the Ki (imidazoline I2-receptors) is reported as 1800 nM.

For `CC(C)c1ccccc1OCC1CN=C(N)O1` (stereo not drawn) [Example 19, 5-[(2-ISOPROPYLPHENOXY)METHYL]-4,5-DIHYDRO-OXAZOL-2-YLAMINE], the Ki (imidazoline I1-receptors) was 120 nM and the Ki (imidazoline I2-receptors) was 2100 nM.

For `NC1=NCC(COc2ccccc2F)O1` (stereo not drawn) [Example 20, 5-[(2-FLUOROPHENOXY)METHYL]-4,5-DIHYDRO-OXAZOL-2-YLAMINE], the Ki (imidazoline I1-receptors) was 210 nM and the Ki (imidazoline I2-receptors) was 1300 nM.

In the case of `NC1=NCC(COc2ccccc2[N+](=O)[O-])O1` (stereo not drawn) [Example 21, 5-[(2-NITROPHENOXY)METHYL]-4,5-DIHYDRO-OXAZOL-2-YLAMINE], the Ki (imidazoline I1-receptors) is reported as 500 nM and the Ki (imidazoline I2-receptors) is reported as 3900 nM.

In the case of `N#Cc1ccccc1OCC1CN=C(N)O1` (stereo not drawn) [Example 22, 5-[(2-CYANOPHENOXY)METHYL]-4,5-DIHYDRO-OXAZOL-2-YLAMINE], the Ki (imidazoline I1-receptors) is reported as 48 nM and the Ki (imidazoline I2-receptors) is reported as 2400 nM.

With `CC(=O)c1ccccc1OCC1CN=C(N)O1` (stereo not drawn) [Example 23, 5-[(2-ACETYLPHENOXY)METHYL]-4,5-DIHYDRO-OXAZOL-2-YLAMINE] the Ki (imidazoline I1-receptors) was 170 nM and the Ki (imidazoline I2-receptors) was 7700 nM.

`CCCNC1=NCC(COc2ccccc2C)O1` (stereo not drawn) [Example 26, N-n-PROPYL-N-[5-(2-METHYLPHENOXY)METHYL-4,5-DIHYDRO-OXAZOL-2-YL]AMINE] showed a Ki (imidazoline I1-receptors) of 670 nM and a Ki (imidazoline I2-receptors) of 1400 nM.

For `CCNC1=NCC(COc2ccccc2C)O1` (stereo not drawn) [Example 27, N-ETHYL-N-[5-(2-METHYLPHENOXY)METHYL-4,5-DIHYDRO-OXAZOL-2-YL]AMINE], the Ki (imidazoline I1-receptors) was 170 nM and the Ki (imidazoline I2-receptors) was 1000 nM.
